ChEMBL document CHEMBL5696442, “Discovery of type II inhibitors of TGFβ-activated kinase 1 (TAK1) and mitogen-activated protein kinase kinase kinase kinase 2 (MAP4K2)” (J Med Chem, 2015)

Tests used:
[1] = target: Serine/threonine-protein kinase 38-like (Homo sapiens) (UniProt Q9Y2H1); assay: Inhibition of NDR2 ACT labeling site in human A-375 cells at 5 uM by KiNativ Profiling analysis relative to control; type: cell-based
[2] = target: MAP kinase-activated protein kinase 2 (Homo sapiens) (UniProt P49137); assay: Inhibition of MAPKAPK2 (unknown origin) at 1 uM by Ambit Kinomescan binding assay relative to control
MAP kinase-activated protein kinase 2 (Homo sapiens), sequence (P49137 whole entry, looked up): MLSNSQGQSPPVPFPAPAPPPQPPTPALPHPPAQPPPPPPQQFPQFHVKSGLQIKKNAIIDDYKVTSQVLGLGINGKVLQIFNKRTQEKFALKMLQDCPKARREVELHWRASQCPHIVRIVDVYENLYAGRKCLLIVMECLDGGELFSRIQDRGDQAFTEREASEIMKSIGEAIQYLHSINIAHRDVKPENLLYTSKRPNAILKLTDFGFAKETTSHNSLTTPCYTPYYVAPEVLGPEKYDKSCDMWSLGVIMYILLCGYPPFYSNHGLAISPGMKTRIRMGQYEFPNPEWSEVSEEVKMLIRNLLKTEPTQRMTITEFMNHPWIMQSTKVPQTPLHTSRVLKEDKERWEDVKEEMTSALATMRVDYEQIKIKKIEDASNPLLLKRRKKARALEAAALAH

[3] = target: Death-associated protein kinase 1 (Homo sapiens) (UniProt P53355); assay: Inhibition of DAPK1 (unknown origin) at 1 uM by Ambit Kinomescan binding assay relative to control; values are per cent of control
Death-associated protein kinase 1 (Homo sapiens), sequence (P53355 whole entry, looked up): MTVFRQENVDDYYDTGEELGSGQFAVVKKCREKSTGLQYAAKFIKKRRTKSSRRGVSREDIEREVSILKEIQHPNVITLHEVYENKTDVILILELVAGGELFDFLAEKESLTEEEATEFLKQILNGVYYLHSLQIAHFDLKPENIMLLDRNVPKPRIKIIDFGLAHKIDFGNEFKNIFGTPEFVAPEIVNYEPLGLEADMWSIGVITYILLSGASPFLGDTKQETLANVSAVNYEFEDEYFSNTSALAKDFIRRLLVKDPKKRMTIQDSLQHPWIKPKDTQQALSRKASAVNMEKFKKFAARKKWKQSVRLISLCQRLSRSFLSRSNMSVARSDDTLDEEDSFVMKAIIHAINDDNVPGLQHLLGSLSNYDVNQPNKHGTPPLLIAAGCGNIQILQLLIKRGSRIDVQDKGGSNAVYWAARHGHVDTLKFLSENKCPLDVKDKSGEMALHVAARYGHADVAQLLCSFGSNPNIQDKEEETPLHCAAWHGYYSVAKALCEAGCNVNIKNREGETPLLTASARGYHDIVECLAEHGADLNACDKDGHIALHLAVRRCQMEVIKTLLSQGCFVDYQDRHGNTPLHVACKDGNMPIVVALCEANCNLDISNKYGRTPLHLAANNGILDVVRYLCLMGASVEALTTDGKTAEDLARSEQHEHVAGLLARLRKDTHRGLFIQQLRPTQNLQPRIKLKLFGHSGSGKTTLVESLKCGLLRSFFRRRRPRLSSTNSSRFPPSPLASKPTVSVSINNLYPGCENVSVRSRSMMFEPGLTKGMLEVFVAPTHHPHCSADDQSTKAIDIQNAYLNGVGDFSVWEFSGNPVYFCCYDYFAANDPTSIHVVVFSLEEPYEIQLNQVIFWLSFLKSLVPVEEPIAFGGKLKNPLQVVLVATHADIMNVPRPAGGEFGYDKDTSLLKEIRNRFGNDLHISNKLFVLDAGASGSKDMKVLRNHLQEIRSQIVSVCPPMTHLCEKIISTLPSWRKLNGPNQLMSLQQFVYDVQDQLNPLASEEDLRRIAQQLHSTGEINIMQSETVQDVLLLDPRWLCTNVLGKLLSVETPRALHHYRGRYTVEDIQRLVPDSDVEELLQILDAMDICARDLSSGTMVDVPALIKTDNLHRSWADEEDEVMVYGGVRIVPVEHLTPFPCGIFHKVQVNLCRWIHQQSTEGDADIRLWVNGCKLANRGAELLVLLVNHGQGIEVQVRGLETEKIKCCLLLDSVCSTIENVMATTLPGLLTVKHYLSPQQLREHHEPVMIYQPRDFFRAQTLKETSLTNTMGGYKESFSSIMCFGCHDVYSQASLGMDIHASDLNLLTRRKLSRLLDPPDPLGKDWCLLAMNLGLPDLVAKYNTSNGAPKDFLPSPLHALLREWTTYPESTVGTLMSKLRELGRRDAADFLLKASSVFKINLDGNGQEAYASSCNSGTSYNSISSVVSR

[4] = target: Cyclin-dependent kinase 6 (Homo sapiens) (UniProt Q00534); assay: Inhibition of CDK6 Lys2 labeling site in human A-375 cells at 0.05 uM by KiNativ Profiling analysis relative to control; type: cell-based
Cyclin-dependent kinase 6 (Homo sapiens), sequence (Q00534 whole entry): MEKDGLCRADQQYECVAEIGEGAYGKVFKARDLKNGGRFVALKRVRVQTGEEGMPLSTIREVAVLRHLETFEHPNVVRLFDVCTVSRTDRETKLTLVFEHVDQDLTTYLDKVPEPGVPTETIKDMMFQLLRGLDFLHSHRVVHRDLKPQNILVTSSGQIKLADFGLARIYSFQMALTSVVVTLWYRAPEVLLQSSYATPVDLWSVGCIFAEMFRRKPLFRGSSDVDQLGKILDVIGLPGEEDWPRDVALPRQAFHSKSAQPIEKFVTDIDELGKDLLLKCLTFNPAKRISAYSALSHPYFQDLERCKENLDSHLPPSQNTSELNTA

[5] = target: Angiopoietin-1 receptor (Homo sapiens) (UniProt Q02763); assay: Inhibition of TIE2 (unknown origin) at 1 uM by Ambit Kinomescan binding assay relative to control
[6] = target: Mitogen-activated protein kinase 7 (Homo sapiens) (UniProt Q13164); assay: Inhibition of ERK5 (unknown origin) at 1 uM by Ambit Kinomescan binding assay relative to control
Mitogen-activated protein kinase 7 (Homo sapiens), sequence (Q13164 2-816 limits assumed): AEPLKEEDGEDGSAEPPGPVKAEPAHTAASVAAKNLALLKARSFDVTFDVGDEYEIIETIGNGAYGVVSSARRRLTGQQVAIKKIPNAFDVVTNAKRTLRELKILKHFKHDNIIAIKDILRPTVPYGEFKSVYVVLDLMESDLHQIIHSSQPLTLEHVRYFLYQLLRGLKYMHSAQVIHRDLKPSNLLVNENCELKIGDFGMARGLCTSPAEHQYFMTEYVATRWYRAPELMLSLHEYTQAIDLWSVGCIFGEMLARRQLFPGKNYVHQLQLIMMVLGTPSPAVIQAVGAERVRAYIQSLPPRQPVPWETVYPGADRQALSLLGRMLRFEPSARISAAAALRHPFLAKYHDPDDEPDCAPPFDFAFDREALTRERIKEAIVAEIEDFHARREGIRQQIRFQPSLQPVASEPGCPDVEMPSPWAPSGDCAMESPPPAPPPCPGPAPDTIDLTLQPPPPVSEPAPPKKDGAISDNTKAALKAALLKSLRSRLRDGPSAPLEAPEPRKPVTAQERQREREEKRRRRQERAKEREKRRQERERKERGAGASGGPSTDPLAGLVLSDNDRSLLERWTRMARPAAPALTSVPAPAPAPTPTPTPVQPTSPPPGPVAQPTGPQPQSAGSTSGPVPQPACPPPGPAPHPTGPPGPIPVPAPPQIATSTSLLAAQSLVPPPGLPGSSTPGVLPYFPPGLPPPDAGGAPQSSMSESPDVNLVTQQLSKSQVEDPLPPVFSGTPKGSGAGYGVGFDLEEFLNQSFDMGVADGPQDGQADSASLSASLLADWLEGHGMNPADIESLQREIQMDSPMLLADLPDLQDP

[7] = target: Serine/threonine-protein kinase 25 (Homo sapiens) (UniProt O00506); assay: Inhibition of YSK1 (unknown origin) at 1 uM by Ambit Kinomescan binding assay relative to control; values are per cent of control
[8] = target: Mitogen-activated protein kinase 14 (Homo sapiens, UniProt Q16539); assay: Inhibition of p38alpha (unknown origin) at 10 uM by Ambit Kinomescan binding assay relative to control; values are per cent of control
Mitogen-activated protein kinase 14, sequence (Q16539 whole entry): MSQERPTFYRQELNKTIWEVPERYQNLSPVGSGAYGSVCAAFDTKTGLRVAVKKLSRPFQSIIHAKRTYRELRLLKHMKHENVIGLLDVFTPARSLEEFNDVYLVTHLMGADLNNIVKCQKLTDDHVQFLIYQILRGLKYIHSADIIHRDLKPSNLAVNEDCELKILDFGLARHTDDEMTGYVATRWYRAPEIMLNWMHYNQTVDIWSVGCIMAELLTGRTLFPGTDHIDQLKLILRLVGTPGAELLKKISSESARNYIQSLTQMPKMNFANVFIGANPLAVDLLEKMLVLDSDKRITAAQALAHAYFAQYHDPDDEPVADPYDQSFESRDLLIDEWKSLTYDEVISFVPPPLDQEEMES

[9] = target: Mitogen-activated protein kinase 7 (Homo sapiens) (UniProt Q13164); assay: Inhibition of Erk5 K2 labeling site in human Huh-7 cells at 10 uM by KiNativ Profiling analysis relative to control; type: cell-based
[10] = target: Cyclin-dependent kinase 8 (Homo sapiens) (UniProt P49336); assay: Inhibition of CDK8 Lys2 labeling site in human A-375 cells at 0.5 uM by KiNativ Profiling analysis relative to control; type: cell-based
[11] = target: Tyrosine-protein kinase Fer (Homo sapiens, UniProt P16591); assay: Inhibition of FER K1 labeling site in human Huh-7 cells at 10 uM by KiNativ Profiling analysis relative to control; type: cell-based
Tyrosine-protein kinase Fer, sequence (P16591 whole entry, looked up): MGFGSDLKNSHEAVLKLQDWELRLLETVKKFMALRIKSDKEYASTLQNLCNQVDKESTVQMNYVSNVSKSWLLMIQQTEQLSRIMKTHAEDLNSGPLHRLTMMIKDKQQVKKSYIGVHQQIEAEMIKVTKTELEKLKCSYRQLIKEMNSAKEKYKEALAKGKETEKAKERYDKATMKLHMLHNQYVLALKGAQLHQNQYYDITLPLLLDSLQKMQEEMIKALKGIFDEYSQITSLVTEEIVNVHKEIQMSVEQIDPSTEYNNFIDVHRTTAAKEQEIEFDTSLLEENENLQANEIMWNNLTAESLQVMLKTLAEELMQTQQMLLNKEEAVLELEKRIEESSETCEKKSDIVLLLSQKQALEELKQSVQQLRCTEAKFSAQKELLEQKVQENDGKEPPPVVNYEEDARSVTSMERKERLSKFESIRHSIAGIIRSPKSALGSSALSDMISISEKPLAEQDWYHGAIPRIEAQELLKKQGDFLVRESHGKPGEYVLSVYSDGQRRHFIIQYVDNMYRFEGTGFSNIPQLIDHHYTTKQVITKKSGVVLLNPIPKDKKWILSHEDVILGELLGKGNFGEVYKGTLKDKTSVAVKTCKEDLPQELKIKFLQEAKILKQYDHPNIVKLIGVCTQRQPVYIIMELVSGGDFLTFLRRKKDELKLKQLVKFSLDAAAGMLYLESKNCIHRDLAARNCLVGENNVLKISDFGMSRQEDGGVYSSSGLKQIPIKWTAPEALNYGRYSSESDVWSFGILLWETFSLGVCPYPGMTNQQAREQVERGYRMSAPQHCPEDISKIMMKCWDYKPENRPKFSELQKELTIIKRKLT

[12] = target: T1, Serine/threonine-protein kinase ULK1 (Homo sapiens) (UniProt O75385); assay: Inhibition of ULK1 Lys2 labeling site in human A-375 cells at 0.05 uM by KiNativ Profiling analysis relative to control; type: cell-based
T1 sequence (whole entry): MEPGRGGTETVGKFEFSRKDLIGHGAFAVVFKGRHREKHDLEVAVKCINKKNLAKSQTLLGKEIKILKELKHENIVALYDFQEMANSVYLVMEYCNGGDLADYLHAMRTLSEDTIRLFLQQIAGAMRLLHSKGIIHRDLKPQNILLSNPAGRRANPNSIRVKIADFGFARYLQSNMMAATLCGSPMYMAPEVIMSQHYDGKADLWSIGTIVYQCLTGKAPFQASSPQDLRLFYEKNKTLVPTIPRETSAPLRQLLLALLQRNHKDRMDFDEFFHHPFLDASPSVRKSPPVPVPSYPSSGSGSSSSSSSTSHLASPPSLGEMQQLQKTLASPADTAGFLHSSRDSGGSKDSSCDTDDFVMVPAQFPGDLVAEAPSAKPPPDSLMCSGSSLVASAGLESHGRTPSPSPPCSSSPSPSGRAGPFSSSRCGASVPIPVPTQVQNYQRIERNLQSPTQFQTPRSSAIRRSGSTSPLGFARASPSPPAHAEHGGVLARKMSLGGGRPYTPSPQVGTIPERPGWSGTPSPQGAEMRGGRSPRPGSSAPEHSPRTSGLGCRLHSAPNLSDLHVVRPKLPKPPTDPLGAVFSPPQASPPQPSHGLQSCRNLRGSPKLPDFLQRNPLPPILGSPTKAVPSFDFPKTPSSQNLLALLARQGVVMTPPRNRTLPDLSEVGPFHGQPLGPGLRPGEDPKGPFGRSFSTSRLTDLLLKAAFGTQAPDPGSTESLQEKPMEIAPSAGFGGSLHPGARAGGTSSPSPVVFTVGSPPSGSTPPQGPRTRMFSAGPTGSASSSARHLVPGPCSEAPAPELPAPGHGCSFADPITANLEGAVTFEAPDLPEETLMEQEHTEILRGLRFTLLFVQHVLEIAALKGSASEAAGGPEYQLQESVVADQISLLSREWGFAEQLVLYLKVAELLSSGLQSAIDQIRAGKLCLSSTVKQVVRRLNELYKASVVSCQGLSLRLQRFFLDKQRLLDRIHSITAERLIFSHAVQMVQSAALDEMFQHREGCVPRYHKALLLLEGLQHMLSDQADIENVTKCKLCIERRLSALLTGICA

[13] = target: Casein kinase I isoform delta (Homo sapiens) (UniProt P48730); assay: Inhibition of CK1delta Lys2 labeling site in human A-375 cells at 0.5 uM by KiNativ Profiling analysis relative to control; type: cell-based
Casein kinase I isoform delta (Homo sapiens), sequence (P48730 whole entry, looked up, canonical isoform): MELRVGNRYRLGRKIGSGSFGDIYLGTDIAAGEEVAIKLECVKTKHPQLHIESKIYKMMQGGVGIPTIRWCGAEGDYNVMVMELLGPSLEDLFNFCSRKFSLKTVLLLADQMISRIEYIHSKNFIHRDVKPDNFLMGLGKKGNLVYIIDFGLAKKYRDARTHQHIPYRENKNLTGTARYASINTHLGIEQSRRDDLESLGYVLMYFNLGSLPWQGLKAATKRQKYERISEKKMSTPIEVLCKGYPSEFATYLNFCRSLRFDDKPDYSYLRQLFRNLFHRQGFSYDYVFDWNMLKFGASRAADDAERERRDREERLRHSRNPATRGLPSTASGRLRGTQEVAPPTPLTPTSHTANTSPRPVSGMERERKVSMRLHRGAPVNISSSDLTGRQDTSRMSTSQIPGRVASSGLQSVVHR

[14] = Inhibition of p70S6K ATP labeling site in human Huh-7 cell lysate at 1 uM by KiNativ Profiling analysis relative to control; conditions: condition cancer

Serine/threonine-protein kinase 38-like (Homo sapiens), sequence (Q9Y2H1 2-464 limits assumed): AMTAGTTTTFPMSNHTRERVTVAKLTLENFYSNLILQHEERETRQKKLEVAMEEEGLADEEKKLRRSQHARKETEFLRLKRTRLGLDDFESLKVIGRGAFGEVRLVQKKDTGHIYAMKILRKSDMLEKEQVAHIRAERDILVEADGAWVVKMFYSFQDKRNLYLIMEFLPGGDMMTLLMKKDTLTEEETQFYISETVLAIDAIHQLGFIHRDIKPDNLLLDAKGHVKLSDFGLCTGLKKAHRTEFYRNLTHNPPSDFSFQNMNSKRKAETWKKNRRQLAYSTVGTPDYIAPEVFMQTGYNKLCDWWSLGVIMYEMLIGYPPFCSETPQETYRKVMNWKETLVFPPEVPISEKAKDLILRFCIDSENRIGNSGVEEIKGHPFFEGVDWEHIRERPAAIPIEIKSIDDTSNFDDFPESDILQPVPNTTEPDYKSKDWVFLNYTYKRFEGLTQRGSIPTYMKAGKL

CCN1CCN(Cc2ccc(NC(=O)c3ccc(C)c(/C=C/c4cnc5[nH]ccc5c4OC)c3)cc2C(F)(F)F)CC1
inhibition [1]: -2.6%
inhibition [2]: 100%
residual activity [3]: 77%
inhibition [4]: 5.5%
inhibition [5]: 0%
inhibition [6]: 83%
percent of control [7]: 100%

CCN1CCN(Cc2ccc(NC(=O)c3ccc(C)c(Oc4ccnc5[nH]ccc45)c3)cc2C(F)(F)F)CC1
percent of control [8]: 0%
inhibition [9]: 12.4%
inhibition [10]: 51.2%
inhibition [11]: 83.3%
inhibition [12]: 4.8%
inhibition [13]: 3.3%

CNc1cc(Oc2cc(C(=O)Nc3cc(N4CCN(C)CC4)cc(C(F)(F)F)c3)ccc2C)ncn1
inhibition at 1 µM [14]: 2.8%
